Source: patent publication US3980794A, “Method for promoting growth of poultry with 3-(5-nitro-2-imidazolyl)pyrazoles” (Eli Lilly and Company, priority 1975, dated 1976)

What was measured:
Salmonella dublin = assay: In vivo activity against Salmonella dublin in calves (Experiment 11)
Description: The in vivo activity of compound 1 against Salmonella dublin was determined in the following manner.
The calves for the in vivo experiment were purchased from a commercial source. Thirty-two calves were brought to the research facility where they were weighed individually and identified by ear tag. Each calf weighed about 90 pounds. The calves were then randomly divided by weight into eight groups of four calves each. Rectal swabs for Salmonella dublin and Escherichia coli isolation were obtained before treatment was started.
Four groups of four calves each were treated with the test compound. Treatment was started 24 hours after challenge with Salmonella dublin and continued for six consecutive days. Treatment was accomplished by oral administration twice daily of gelatin capsules of test compound 1. During the treatment, rectal swabs were taken daily of each calf and bacterial isolations for salmonella species were run. At the end of the trial, rectal swabs for E. coli and salmonella species were taken again. The trials were terminated the day following the last treatment, at which time the calves were weighed and sacrificed.
In the chart, column 1 records the dose rate/day/calf; column 2, the dose rate in mg./lb.; column 3, the survival ratio observed; and column 4, the occurrence of salmonella isolates obtained at necropsy.

[1] = test system: Pasteurella multocida and Pasteurella hemolytica; assay: In vivo activity against pasteurellosis in calves (Experiment 10)
Description: The in vivo activity of compound 1 against pasteurellosis in calves was determined in the following manner. Twelve calves weighing approximately 180 pounds each were obtained from a commercial source and were brought to the research facility where they were weighed individually and identified by ear tag. The calves were divided into two groups of six calves each, and two hundred thousand ascaris ova were administered to each calf seven days prior to the pasteurella challenge. […] The compound was administered orally in two equal doses of 2000 mg. each, using capsules containing 500 mg. of compound each. The actual dosage of the test compound ranged from about 45 to about 55 mg. per kilo per head per day. The treatment was initiated one day prior to the pasteurella challenge and was continued daily for a total of seven days. […] The pasteurella challenge was prepared using three isolates of Pasteurella multocida and three isolates of Pasteurella hemolytica, all of bovine origin. The isolates were grown in tryptose culture for about 18 hours and then mixed in equal parts in a challenge cocktail. Approximately 0.1 ml. was used to aerosol-expose each calf. This exposure was carried out by placing a plastic bag over the head of each calf and running the aerosol into the bag. The pasteurella challenge was timed to coincide with the period of mechanical injury to the lung tissue caused by the […] larvae migration. […] All the calves were sacrificed on the tenth day post-pasteurella challenge, and the extent of pneumonic lesions in the lung tissues noted. Thus, after the calves were sacrificed, the lungs were removed from each calf and examined for lesions grossly. In addition, attempts were made to re-isolate pasteurella from the pneumonic lung tissue.

Salmonella choleraesuis = assay: In vivo activity against Salmonella choleraesuis in pigs (Experiment 14)
Description: The in vivo activity of compound 1 against Salmonella choleraesuis was determined in the following manner.
Twenty-four healthy feeder pigs were purchased from a local farm and brought to the research facility where they were weighed individually and identified by ear tag. Four groups of six pigs each were formed so that the average pig weight per group was similar.
Two groups of pigs were given compound 1 at a level of 50 g./ton in the feed. The remaining two groups of pigs were fed the same basal ration without compound 1. Twenty-four hours after initiation of the compound 1 feed treatment, all four groups were challenged orally using 10 ml. of a broth culture of Salmonella choleraesuis.
The pigs were weighed weekly throughout the duration of the experiment and on the 28th day postsalmonella challenge, each surviving pig was killed and the salmonella-caused lesions were recorded. Chart 14, which follows, contains a summary of the results from the trial.

[2] = 100 mg./day oral (1.25 mg./lb.)
[3] = 50 g./ton continuous, total of both replicates

With `Cn1nc(-c2ncc([N+](=O)[O-])n2C)c(C#N)c1N` [Compound 1, 5-Amino-1-methyl-3-(1-methyl-5-nitro-2-imidazolyl)pyrazole-4-carbonitrile] the “Salmonella isolates at necropsy” value (Salmonella dublin; [2]) was 1/4, the “Survival Ratio” value (Salmonella dublin; [2]) was 4/4 and the “Salmonella isolates at necropsy” value (Salmonella dublin; 250 mg./day oral (2.5 mg./lb.)) was 2/4. For the same compound, the “Survival Ratio” value (Salmonella dublin; 250 mg./day oral (2.5 mg./lb.)) was 4/4, the “Salmonella isolates at necropsy” value (Salmonella dublin; 500 mg./day oral (5 mg./lb.)) was 1/4 and the “Survival Ratio” value (Salmonella dublin; 500 mg./day oral (5 mg./lb.)) was 4/4. The “Salmonella isolates at necropsy” value (Salmonella dublin; 1000 mg./day oral (11 mg./lb.)) was 0/4, the “Survival Ratio” value (Salmonella dublin; 1000 mg./day oral (11 mg./lb.)) was 4/4 and the “salmonella isolates from organs of treated calves” value (Salmonella dublin; at termination of the trial) was “reduced number of salmonella isolates”. For the same compound, the “control of Salmonella dublin in calves” value (Salmonella dublin; compound 1 oral, about 100 to about 1000 mg./day/calf) was “effective in controlling Salmonella dublin in calves”, the “pasteurella colonies in lungs of a third treated calf” value ([1]; at necropsy) was “only three pasteurella colonies” and the “calves with moderate number of pasteurella colonies in lungs” value ([1]; at necropsy, six calves) was “Another treated calf”. For the same compound, the “calves with numerous colonies of pasteurella in lungs” value ([1]; at necropsy, six calves) was “One of the treated calves”, the “calves yielding no pasteurella from the lung tissue” value ([1]; at necropsy, six calves) was “Three of the treated calves” and the “treatment response (control of lung lesions and reisolation of pasteurella)” value ([1]; oral, about 45 to about 55 mg. per kilo per day) was “All the calves treated with compound 1 showed a treatment response”. For the same compound, the body temperature ([1]; oral, about 45 to about 55 mg. per kilo per head per day, versus infected control) was “considerably lower”, the “calves with moderate pneumonic lung lesion” value ([1]; oral, tenth day post-challenge, six calves) was “A single treated calf” and the mortality (Salmonella choleraesuis; 50 g./ton continuous) was “prevented mortality”. The “Mean Pig Wt.” value (Salmonella choleraesuis; 50 g./ton continuous, Avg., day 0) was 30.0 Lbs, the “Mean Pig Wt.” value (Salmonella choleraesuis; 50 g./ton continuous, Avg., day 7) was 31.8 Lbs and the “Mean Pig Wt.” value (Salmonella choleraesuis; 50 g./ton continuous, Avg., day 14) was 33.5 Lbs. For the same compound, the “Mean Pig Wt.” value (Salmonella choleraesuis; 50 g./ton continuous, Avg., day 21) was 39.4 Lbs, the “Mean Pig Wt.” value (Salmonella choleraesuis; 50 g./ton continuous, Avg., day 28) was 45.5 Lbs and the “Lesions at Necropsy” value (Salmonella choleraesuis; 50 g./ton continuous, Rep. 1) was 2/6. The “No. Dead/No. in Grp.” value (Salmonella choleraesuis; 50 g./ton continuous, Rep. 1) was 0/6, the “Mean Pig Wt.” value (Salmonella choleraesuis; 50 g./ton continuous, Rep. 1, day 0) was 30.2 Lbs and the “Mean Pig Wt.” value (Salmonella choleraesuis; 50 g./ton continuous, Rep. 1, day 7) was 32.5 Lbs. For the same compound, the “Mean Pig Wt.” value (Salmonella choleraesuis; 50 g./ton continuous, Rep. 1, day 14) was 33.8 Lbs, the “Mean Pig Wt.” value (Salmonella choleraesuis; 50 g./ton continuous, Rep. 1, day 21) was 38.8 Lbs and the “Mean Pig Wt.” value (Salmonella choleraesuis; 50 g./ton continuous, Rep. 1, day 28) was 44.2 Lbs. The “Lesions at Necropsy” value (Salmonella choleraesuis; 50 g./ton continuous, Rep. 2) was 1/6, the “No. Dead/No. in Grp.” value (Salmonella choleraesuis; 50 g./ton continuous, Rep. 2) was 0/6 and the “Mean Pig Wt.” value (Salmonella choleraesuis; 50 g./ton continuous, Rep. 2, day 0) was 29.7 Lbs. The “Mean Pig Wt.” value (Salmonella choleraesuis; 50 g./ton continuous, Rep. 2, day 7) was 31.0 Lbs, the “Mean Pig Wt.” value (Salmonella choleraesuis; 50 g./ton continuous, Rep. 2, day 14) was 33.2 Lbs and the “Mean Pig Wt.” value (Salmonella choleraesuis; 50 g./ton continuous, Rep. 2, day 21) was 40.0 Lbs. The “Mean Pig Wt.” value (Salmonella choleraesuis; 50 g./ton continuous, Rep. 2, day 28) was 46.7 Lbs, the “improved weight gain over that of infected pigs” value (Salmonella choleraesuis; 50 g./ton continuous, average) was 4.3 lbs./pig and the “Lesions at Necropsy” value (Salmonella choleraesuis; [3]) was 3/12. For the same compound, the “No. Dead/No. in Grp.” value (Salmonella choleraesuis; [3]) was 0/12 and the “control of Salmonella choleraesuis in swine” value (Salmonella choleraesuis; compound 1 in the feed about 50 g./ton) was “effective in the control of Salmonella choleraesuis in swine”.
